Results published in US11344510B2, “Arylcyclohexylamine derivatives and their use in the treatment of psychiatric disorders” (Gilgamesh Pharmaceuticals, Inc., priority 2019, dated 2022).
pIC50: −log10 of the molar value. Like-named read-outs stand apart in the source and are kept apart here.

Key:
[1] = system: monoamine transporters, MATs (SERT, NET, DAT, VMAT2); experiment: Monoamine uptake inhibition, monoamine transporters collectively; type: cell-based; details: in words
Method: The ability of the compounds of the present invention to inhibit uptake of monoamines by the serotonin transporter (SERT), norepinephrine transporter (NET), dopamine transporter (DAT), and vesicular monoamine transporter 2 (VMAT2) (collectively monoamine transporters, MATs) was measured using fluorescent substrate uptake assays in transfected cells (Table 14). The binding affinities of select compounds were also determined in radioligand displacement assays at SERT, NET, and/or DAT (Table 14).
Uptake Inhibition. The ability of test compounds to block monoamine uptake by SERT, NET, DAT, and VMAT2 was determined using the Neurotransmitter Transporter Uptake Assay Kit manufactured by Molecular Devices (Cat #R8173). Briefly, stably transfected cells expressing the MAT of interest (HEK293 cells for SERT and NET; CHO cells for DAT) were grown and plated into 384-well plates at a concentration of 20,000 cells per well. Plates were then incubated for 16-20 h at 37° C. and 5% CO2. The medium was then aspirated and replaced with 25 μL of assay buffer (20 mM HEPES in HBSS, containing 0.1% BSA) containing the test compounds at the appropriate concentrations. Plates were then centrifuged at 300 rpm for 15 s and then incubated at 37° C. for 30 minutes. At this time, 25 μL of the proprietary fluorescent dye solution was added, the plates were incubated at 37° C. for 60 minutes, and then fluorescence was quantified on a plate reader (excitation wavelength=440 nm, emission wavelength=520 nm). The proprietary dye solution contains a mixture of 1) a fluorescent dye that mimics the endogenous substrates of MATs and is thereby actively transported to the intracellular compartment in the absence of an inhibitor and 2) a masking dye that inhibits the fluorescence of dye 1 in the extracellular compartment. Therefore, the overall fluorescence of the system increases as the fluorescent dye is transported into the cells.

[2] = Oral bioavailability in mice, Method B; type: in vivo; details: CD-1 mice; for AUC0-inf (iv) / AUC0-last (po) / AUC(0-inf): Method B: values represent AUC0-last (footnote); for F: 10 mg/kg; for half-life / Cmax / AUC(0-inf): male, mouse
Method: Animals. Male CD-1 mice were used in these studies Animals were randomly assigned to treatment groups and were fasted for 4 h before oral dosing.
Drugs. Test compounds were dissolved in a vehicle consisting of normal saline (compounds 19S and 88R) or a mixture of 5% v/v N-methyl-2-pyrrolidone, 5% v/v Solutol HS-15, and 90% v/v normal saline (compounds 11S, 11R, 114S, and 114R). They were then administered intravenously (iv) or orally (po) at a dose of 10 mg/kg (calculated based on freebase) and at a volume of 5 mL/kg body weight. Compounds were tested as the racemates (indicated by “rac” nomenclature) or pure enantiomers (indicated by “R” or “S” nomenclature).
Sample Collection and Bioanalysis. Blood samples (approximately 60 μL) were collected under light isoflurane anesthesia (Surgivet®) from the retro orbital plexus at 0.08, 0.25, 0.5, 1, 2, 4, 8, and 24 h (4 animals per time point) Immediately after blood collection, plasma was harvested by centrifugation at 4000 rpm for 10 min at 4° C. and samples were stored at −70±10° C. until bioanalysis. Following blood collection, animals were immediately sacrificed, the abdominal vena-cava was cut open, and the whole body was perfused from the heart using 10 mL of normal saline, and brain samples were collected from all animals After isolation, brain samples were rinsed three times in ice-cold normal saline (for 5-10 seconds/rinse using ˜5-10 mL normal saline in disposable petri dish for each rinse) and dried on blotting paper. Brain samples were homogenized using ice-cold phosphate-buffered saline (pH 7.4). Total homogenate volume was three times the tissue weight. All homogenates were stored at −70±10° C. until bioanalysis. For bioanalysis, 25 μL aliquots of plasma/brain study samples or spiked plasma/brain calibration standards were added to individual pre-labeled micro-centrifuge tubes followed by 100 μL of an internal standard solution (glipizide, 500 ng/mL in acetonitrile) except for blanks, where 100 μL of acetonitrile was added. Samples were vortexed for 5 minutes and then centrifuged for 10 minutes at 4000 rpm at 4° C. Following centrifugation, 100 μL of each clear supernatant was transferred to a 96 well plate and analyzed with a fit-for-purpose LC-MS/MS method, with authentic samples of each analyte used for calibration and identification.
(§1) Data Analysis. Pharmacokinetic parameters were estimated using the non-compartmental analysis tool of Phoenix® WinNonlin software (Ver 8.0).

[3] = target: T1, norepinephrine transporter (NET) (Homo sapiens, UniProt P23975); experiment: Fluorescent substrate uptake inhibition, NET; type: cell-based; details: for inhibition at 10 µM: HEK293 cells expressing NET
T1 construct: expressed in transfected cells; host or cells: HEK293
T1 sequence (P23975 whole entry, species assumed): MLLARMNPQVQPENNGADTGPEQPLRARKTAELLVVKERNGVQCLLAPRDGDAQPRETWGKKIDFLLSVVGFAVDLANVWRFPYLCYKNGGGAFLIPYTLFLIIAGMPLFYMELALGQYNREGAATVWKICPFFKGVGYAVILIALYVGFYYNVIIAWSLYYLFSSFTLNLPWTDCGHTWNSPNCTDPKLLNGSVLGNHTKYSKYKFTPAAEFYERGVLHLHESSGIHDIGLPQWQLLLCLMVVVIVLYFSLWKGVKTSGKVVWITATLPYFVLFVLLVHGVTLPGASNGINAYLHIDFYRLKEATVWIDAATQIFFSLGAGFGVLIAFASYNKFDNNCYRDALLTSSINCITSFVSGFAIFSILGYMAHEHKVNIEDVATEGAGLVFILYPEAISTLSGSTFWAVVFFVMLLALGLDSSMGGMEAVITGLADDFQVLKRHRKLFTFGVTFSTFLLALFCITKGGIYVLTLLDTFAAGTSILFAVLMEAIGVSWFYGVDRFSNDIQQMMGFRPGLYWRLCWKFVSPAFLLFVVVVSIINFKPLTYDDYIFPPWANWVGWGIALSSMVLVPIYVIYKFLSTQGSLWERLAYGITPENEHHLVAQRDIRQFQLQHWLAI

[4] = Oral bioavailability in rats, Method B; type: in vivo; details: plasma, Sprague Dawley rats, Method B; for AUC(0-t) / half-life / Cmax: male, rat; for F: 10 mg/kg
Method: Animals. Male Sprague Dawley rats were used in these studies. Animals were randomly assigned to treatment groups and were fasted overnight before oral dosing.
Drugs. Test compounds were dissolved in a vehicle consisting of normal saline (compounds 14R, 88R, 29rac, and 27rac) or a mixture of 5% v/v N-methyl-2-pyrrolidone, 5% v/v Solutol HS-15, and 90% v/v normal saline (compounds 84R and 84S). They were then administered intravenously (iv) or orally (po) at a dose of 10 mg/kg (calculated based on freebase) and at a volume of 5 mL/kg body weight. Compounds were tested as the racemates (indicated by “rac” nomenclature) or pure enantiomers (indicated by “R” or “S” nomenclature).
Sample Collection and Bioanalysis. Blood samples (approximately 120 μL) were collected under light isoflurane anesthesia (Surgivet®) from the retro orbital plexus at 0.08, 0.25, 0.5, 1, 2, 4, 8, and 24 h (total 8 time points/rat, 4 rats per administration route per compound). Immediately after blood collection, plasma was harvested by centrifugation at 4000 rpm for 10 min at 4° C. and samples were stored at −70±10° C. until bioanalysis. For bioanalysis, 25 μL aliquots of plasma study samples or spiked plasma calibration standards were added to individual pre-labeled micro-centrifuge tubes followed by 100 μL of an internal standard solution (glipizide, 500 ng/mL in acetonitrile) except for blanks, where 100 μL of acetonitrile was added. Samples were vortexed for 5 minutes and then centrifuged for 10 minutes at 4000 rpm at 4° C. Following centrifugation, 100 μL of each clear supernatant was transferred to a 96 well plate and analyzed with a fit-for-purpose LC-MS/MS method, with authentic samples of each analyte used for calibration and identification. In the case of compounds 14R and 88R, their metabolite 11R was also quantified in plasma samples.
as §1

[5] = calculated based on brain exposure (AUC0-last), Method B
[6] = brain, 10 mg/kg iv, Method B, read-out: t1/2 (iv)
[7] = brain, 10 mg/kg po, Method B, read-out: t1/2 (po)
[8] = plasma, 10 mg/kg iv, read-out: AUC0-inf (iv) (converted)
[9] = plasma, 10 mg/kg iv, Method B, read-out: t1/2 (iv)
[10] = plasma, 10 mg/kg po, read-out: AUC0-inf (po) (converted)
[11] = plasma, 10 mg/kg po, Method B, read-out: t1/2 (po)
[12] = plasma, Method B: based on AUC0-last
[13] = 10 mg/kg iv, read-out: AUC0-last (iv) (converted)
[14] = 10 mg/kg iv, read-out: t1/2 (iv)
[15] = 10 mg/kg po, read-out: AUC0-last (po) (converted)
[16] = 10 mg/kg po, read-out: t1/2 (po)

| SMILES | AUC0-inf (iv) ([2]; brain, 10 mg/kg iv) | AUC0-last (po) ([2]; brain, 10 mg/kg po) | F [2, 5] [%] | half-life [2, 6] [h] | Cmax ([2]; brain, 10 mg/kg po, Method B) [ng/g] | half-life [2, 7] [h] | AUC(0-inf) [2, 8] [ng·h/mL] | half-life [2, 9] [h] | Cmax ([2]; plasma, 10 mg/kg po, Method B) [ng/mL] | AUC(0-inf) [2, 10] [ng·h/mL] | half-life [2, 11] [h] | F [2, 12] [%] | inhibition at 10 µM [3] [%] | AUC(0-t) [4, 13] [ng·h/mL] | half-life [4, 14] [h] | Cmax ([4]; 10 mg/kg po) [ng/mL] | AUC(0-t) [4, 15] [ng·h/mL] | half-life [4, 16] [h] | F [4] [%] | pIC50 [3] | other results |
| --- | --- | --- | --- | --- | --- | --- | --- | --- | --- | --- | --- | --- | --- | --- | --- | --- | --- | --- | --- | --- | --- |
| CN[C@]1(c2cccc(F)c2)CCCCC1=O [Compound 19S, (5)-2-(3-fluorophenyl)-2-(methylamino)cyclohexan-1-one] | 171,028 ng*min/g | 23,552 ng*min/g | 14 | 1.93 | 436 | 2.35 | 1130 | 1.9 | 442 | 671 | 2.28 | 59 | 10.3 | – | – | – | – | – | – | – | selectivity for NMDAR (over MATs) [1]: greater selectivity for NMDAR |
| Cc1ccccc1[C@]1(N)CCCCC1=O [Compound 114R, (R)-2-amino-2-(o-tolyl)cyclohexan-1-one] | 155,752 ng*min/g | 38,185 ng*min/g | 25 | 0.32 | 683 | 1.12 | 325 | 0.75 | 319 | 430 | 1.28 | 132 | 7.7 | – | – | – | – | – | – | – | – |
| O=C1CCCC[C@]1(c1ccccc1)N1CCC1 [Compound 84R, (R)-2-(azetidin-1-yl)-2-phenyl-cyclohexan-1-one] | – | – | – | – | – | – | – | – | – | – | – | – | 29.1 | 369 | 0.62 | 15.5 | 11.9 | 0.45 | 3 | 4.81 | – |
| O=C1CCCC[C@@]1(c1ccccc1)N1CCC1 [Compound 84S, (S)-2-(azetidin-1-yl)-2-phenyl-cyclohexan-1-one] | – | – | – | – | – | – | – | – | – | – | – | – | 34.9 | 482 | 0.77 | 69.8 | 77 | 0.62 | 16 | 4.53 | – |
| Cc1ccccc1[C@@]1(N)CCCCC1=O [Compound 114S, (S)-2-amino-2-(o-tolyl)cyclohexan-1-one] | 244,634 ng*min/g | 86,338 ng*min/g | 35 | – | 825 | – | 757 | 1.34 | 746 | 1470 | 1.32 | 194 | 10.4 | – | – | – | – | – | – | – | selectivity for NMDAR (over MATs) [1]: greater selectivity for NMDAR |
| N[C@@]1(c2ccccc2)CCCCC1=O [Compound 11R, (R)-2-amino-2-phenyl-cyclohexan-1-one] | 621,341 ng*min/g | 220,091 ng*min/g | 35 | 1.17 | 1470 | 1.9 | 5570 | 1.11 | 1430 | 4210 | 2.41 | 76 | 10.4 | – | – | – | – | – | – | – | – |
| CN[C@]1(c2ccccc2)CCCCC1=O [Compound 14S, (S)-2-(methylamino)-2-phenylcyclohexan-1-one] | – | – | – | – | – | – | – | – | – | – | – | – | 1.8 | – | – | – | – | – | – | – | – |
| O=C1CCCCC1(c1ccccc1)N1CCCC1 (racemic) [Compound 27rac, 2-phenyl-2-(pyrrolidin-1-yl)cyclohexan-1-one] | – | – | – | – | – | – | – | – | – | – | – | – | 40.8 | 1710 | 1.62 | 197 | 563 | 2.42 | 33 | 5.31 | – |
